This note sets out measurements from ChEMBL document CHEMBL1944561, “Discovery and SAR exploration of a novel series of imidazo[4,5-b]pyrazin-2-ones as potent and selective mTOR kinase inhibitors” (Bioorg Med Chem Lett, 2011).

The target of experiment [1] is Tyrosine-protein kinase BTK (Homo sapiens) (UniProt Q06187). Put plainly: Inhibition of BTK assessed as activity remaining at 10 uM.
The target in experiment [2] is Mitogen-activated protein kinase kinase kinase 9 (Homo sapiens) (UniProt P80192). Put plainly: Inhibition of MLK1 assessed as activity remaining at 10 uM.
Experiment [3] addresses T1, Calcium/calmodulin-dependent protein kinase type IV (Homo sapiens) (UniProt Q16566).
T1 sequence (whole entry): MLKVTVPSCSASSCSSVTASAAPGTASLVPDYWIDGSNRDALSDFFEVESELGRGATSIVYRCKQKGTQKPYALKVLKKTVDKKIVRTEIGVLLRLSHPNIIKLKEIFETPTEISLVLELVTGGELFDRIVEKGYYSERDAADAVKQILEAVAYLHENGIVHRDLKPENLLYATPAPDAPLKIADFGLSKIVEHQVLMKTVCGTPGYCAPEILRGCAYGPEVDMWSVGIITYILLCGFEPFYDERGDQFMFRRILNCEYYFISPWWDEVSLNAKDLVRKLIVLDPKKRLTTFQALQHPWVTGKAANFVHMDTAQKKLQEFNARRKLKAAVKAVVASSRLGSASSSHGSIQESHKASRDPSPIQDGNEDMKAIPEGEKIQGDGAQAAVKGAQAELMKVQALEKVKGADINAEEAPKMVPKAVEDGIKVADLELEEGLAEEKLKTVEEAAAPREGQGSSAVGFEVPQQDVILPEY
Put plainly: Inhibition of CaMK4 assessed as activity remaining at 10 uM.

Experiment [4] concerns the target Protein-tyrosine kinase 6 (Homo sapiens) (UniProt Q13882). The experiment is described as follows: Inhibition of BRK assessed as activity remaining at 10 uM.
Experiment [5] addresses Protein kinase C alpha type (Homo sapiens) (UniProt P17252). Put plainly: Inhibition of PKC-alpha assessed as activity remaining at 10 uM.
Experiment [6] addresses T2, Tyrosine-protein kinase receptor TYRO3 (Homo sapiens) (UniProt Q06418).
T2 sequence (whole entry): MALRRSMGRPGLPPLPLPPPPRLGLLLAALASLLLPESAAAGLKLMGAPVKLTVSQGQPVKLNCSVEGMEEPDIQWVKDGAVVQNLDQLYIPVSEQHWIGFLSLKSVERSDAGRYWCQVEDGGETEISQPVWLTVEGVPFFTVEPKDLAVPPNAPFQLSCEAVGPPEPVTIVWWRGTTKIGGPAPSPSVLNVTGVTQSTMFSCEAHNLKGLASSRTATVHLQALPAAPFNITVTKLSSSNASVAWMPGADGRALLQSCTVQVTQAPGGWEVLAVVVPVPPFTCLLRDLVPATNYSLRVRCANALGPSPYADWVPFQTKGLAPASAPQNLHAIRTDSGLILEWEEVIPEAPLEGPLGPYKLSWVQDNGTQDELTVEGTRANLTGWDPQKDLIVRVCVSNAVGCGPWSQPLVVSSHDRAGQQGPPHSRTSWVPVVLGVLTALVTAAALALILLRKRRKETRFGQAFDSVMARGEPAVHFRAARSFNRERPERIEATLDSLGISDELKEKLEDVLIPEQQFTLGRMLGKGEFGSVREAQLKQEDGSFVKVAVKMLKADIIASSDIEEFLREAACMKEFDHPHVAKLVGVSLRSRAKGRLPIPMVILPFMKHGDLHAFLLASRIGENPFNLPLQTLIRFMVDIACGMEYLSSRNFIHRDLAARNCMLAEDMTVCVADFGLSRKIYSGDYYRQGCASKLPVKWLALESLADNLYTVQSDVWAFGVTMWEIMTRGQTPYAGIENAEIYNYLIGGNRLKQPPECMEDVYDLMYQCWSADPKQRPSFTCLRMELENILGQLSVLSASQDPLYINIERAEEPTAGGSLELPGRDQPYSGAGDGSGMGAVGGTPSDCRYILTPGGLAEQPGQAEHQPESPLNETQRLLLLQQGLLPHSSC
The experiment is described as follows: Inhibition of Rse assessed as activity remaining at 10 uM.

Experiment [7] deals with Tyrosine-protein kinase Fes/Fps (Homo sapiens) (UniProt P07332). Put plainly: Inhibition of Fes assessed as activity remaining at 10 uM.
Another experiment relates to PC-3. Put plainly: Antiproliferative activity against human PC3 cells.
Experiment [8] concerns the target Serine/threonine-protein kinase mTOR (Homo sapiens, UniProt P42345). The experiment is described as follows: Inhibition of mTOR.
For experiment [9], the target named is Insulin receptor-related protein (Homo sapiens) (UniProt P14616). Put plainly: Inhibition of IRR assessed as activity remaining at 10 uM.
Experiment [10] deals with Receptor-type tyrosine-protein kinase FLT3 (Homo sapiens) (UniProt P36888). Put plainly: Inhibition of Flt3 assessed as activity remaining at 10 uM.
Experiment [11] addresses Mast/stem cell growth factor receptor Kit (Homo sapiens) (UniProt P10721). The experiment is described as follows: Inhibition of cKit assessed as activity remaining at 10 uM.
Experiment [12] concerns the target Tyrosine-protein kinase Yes (Homo sapiens) (UniProt P07947). Put plainly: Inhibition of Yes assessed as activity remaining at 10 uM.
Experiment [13] concerns the target Homeodomain-interacting protein kinase 1 (Homo sapiens) (UniProt Q86Z02). Put plainly: Inhibition of HIPK1 assessed as activity remaining at 10 uM.
The target in experiment [14] is Mitogen-activated protein kinase 14 (Homo sapiens) (UniProt Q16539). The experiment is described as follows: Inhibition of p38alpha assessed as activity remaining at 10 uM.
In experiment [15] the target is High affinity nerve growth factor receptor (Homo sapiens) (UniProt P04629). Put plainly: Inhibition of TrkA assessed as activity remaining at 10 uM.
Experiment [16] concerns the target Epidermal growth factor receptor (Homo sapiens) (UniProt P00533). Put plainly: Inhibition of EGFR assessed as activity remaining at 10 uM.

Chain of Mast/stem cell growth factor receptor Kit (Homo sapiens) (P10721 whole entry): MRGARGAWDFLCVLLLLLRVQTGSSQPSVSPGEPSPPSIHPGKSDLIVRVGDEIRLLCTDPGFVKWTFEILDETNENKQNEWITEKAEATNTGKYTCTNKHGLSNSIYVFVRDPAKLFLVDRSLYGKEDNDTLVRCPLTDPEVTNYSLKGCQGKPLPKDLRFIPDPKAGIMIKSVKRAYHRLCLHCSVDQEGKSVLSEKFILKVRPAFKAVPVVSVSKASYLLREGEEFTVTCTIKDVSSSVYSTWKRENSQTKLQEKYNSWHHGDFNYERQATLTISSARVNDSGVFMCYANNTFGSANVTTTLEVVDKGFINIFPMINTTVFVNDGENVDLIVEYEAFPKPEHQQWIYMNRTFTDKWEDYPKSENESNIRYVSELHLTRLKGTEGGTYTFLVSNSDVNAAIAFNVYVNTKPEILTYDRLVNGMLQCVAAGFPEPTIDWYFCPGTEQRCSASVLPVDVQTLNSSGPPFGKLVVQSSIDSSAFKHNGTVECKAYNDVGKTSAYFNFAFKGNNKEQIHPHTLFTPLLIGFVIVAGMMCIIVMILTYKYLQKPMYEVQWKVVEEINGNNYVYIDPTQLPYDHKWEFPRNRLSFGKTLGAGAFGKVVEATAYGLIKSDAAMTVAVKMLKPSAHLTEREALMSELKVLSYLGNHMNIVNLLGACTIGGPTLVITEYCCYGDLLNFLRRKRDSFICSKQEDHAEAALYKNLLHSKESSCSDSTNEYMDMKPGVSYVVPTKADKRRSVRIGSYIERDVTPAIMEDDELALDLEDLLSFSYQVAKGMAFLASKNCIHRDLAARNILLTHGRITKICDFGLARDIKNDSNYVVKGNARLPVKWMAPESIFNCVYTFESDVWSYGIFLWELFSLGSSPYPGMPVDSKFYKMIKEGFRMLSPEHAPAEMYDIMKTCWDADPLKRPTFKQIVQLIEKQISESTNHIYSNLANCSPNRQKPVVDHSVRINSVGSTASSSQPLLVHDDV
Chain of Homeodomain-interacting protein kinase 1 (Homo sapiens) (Q86Z02 whole entry, looked up): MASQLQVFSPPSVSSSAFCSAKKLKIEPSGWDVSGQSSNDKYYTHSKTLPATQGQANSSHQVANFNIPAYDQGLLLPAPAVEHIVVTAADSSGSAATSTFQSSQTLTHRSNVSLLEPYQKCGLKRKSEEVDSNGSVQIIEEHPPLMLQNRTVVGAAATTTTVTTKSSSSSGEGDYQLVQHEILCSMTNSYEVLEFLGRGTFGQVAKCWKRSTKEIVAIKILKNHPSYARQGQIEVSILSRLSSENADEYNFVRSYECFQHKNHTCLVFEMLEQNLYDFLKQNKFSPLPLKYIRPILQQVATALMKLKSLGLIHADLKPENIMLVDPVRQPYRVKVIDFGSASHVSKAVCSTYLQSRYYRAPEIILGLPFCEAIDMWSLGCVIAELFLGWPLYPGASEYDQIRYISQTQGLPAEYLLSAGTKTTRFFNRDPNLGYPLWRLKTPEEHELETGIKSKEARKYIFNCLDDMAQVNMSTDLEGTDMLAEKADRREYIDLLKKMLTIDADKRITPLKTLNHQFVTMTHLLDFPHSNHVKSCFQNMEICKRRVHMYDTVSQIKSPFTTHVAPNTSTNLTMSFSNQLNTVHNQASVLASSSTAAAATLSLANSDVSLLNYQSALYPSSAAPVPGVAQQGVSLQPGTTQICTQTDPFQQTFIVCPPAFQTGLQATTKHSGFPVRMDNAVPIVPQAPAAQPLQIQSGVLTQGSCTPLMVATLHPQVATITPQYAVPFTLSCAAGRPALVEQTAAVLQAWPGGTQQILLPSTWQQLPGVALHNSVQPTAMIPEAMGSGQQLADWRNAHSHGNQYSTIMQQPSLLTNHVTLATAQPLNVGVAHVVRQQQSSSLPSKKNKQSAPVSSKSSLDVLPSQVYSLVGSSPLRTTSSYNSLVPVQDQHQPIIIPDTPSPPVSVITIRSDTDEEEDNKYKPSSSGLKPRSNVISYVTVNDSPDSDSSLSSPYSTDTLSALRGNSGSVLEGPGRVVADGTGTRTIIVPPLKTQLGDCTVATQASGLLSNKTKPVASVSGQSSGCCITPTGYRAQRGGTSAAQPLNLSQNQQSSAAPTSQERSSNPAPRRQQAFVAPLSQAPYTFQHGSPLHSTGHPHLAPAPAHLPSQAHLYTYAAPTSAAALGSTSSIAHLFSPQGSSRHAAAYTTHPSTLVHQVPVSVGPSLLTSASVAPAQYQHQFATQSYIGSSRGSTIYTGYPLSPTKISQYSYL
Chain of Protein-tyrosine kinase 6 (Homo sapiens) (Q13882 whole entry, looked up): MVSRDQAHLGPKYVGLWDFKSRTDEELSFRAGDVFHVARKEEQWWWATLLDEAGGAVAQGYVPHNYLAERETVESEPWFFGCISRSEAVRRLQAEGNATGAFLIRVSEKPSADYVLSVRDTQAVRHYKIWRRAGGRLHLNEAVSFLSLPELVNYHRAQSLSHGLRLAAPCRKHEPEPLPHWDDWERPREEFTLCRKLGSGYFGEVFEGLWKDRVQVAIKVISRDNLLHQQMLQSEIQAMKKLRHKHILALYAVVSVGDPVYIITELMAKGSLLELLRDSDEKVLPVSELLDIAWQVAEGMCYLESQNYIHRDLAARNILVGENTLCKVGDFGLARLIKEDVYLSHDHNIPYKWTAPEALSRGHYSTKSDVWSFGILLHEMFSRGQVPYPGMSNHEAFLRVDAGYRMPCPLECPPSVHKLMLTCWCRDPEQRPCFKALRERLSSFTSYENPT
Chain of Tyrosine-protein kinase BTK (Homo sapiens) (Q06187 whole entry): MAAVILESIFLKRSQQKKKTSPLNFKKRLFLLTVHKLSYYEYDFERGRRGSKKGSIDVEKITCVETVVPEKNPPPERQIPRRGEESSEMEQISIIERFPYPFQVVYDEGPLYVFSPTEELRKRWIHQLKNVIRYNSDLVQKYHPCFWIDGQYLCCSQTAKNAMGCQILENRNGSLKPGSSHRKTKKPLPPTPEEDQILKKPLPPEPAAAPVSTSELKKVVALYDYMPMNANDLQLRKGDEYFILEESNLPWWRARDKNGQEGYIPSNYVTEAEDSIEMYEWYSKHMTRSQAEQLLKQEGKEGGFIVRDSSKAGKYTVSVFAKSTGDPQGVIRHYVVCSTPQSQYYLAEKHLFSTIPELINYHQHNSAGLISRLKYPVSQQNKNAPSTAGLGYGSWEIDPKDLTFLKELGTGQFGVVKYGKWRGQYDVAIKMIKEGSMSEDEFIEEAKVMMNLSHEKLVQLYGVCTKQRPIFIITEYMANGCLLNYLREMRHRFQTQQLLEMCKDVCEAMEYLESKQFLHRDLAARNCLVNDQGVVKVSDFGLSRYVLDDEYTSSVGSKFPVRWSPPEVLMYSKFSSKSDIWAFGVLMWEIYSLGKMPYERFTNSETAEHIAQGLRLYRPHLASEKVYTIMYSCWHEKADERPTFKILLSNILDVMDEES
Chain of Mitogen-activated protein kinase 14 (Homo sapiens) (Q16539 whole entry): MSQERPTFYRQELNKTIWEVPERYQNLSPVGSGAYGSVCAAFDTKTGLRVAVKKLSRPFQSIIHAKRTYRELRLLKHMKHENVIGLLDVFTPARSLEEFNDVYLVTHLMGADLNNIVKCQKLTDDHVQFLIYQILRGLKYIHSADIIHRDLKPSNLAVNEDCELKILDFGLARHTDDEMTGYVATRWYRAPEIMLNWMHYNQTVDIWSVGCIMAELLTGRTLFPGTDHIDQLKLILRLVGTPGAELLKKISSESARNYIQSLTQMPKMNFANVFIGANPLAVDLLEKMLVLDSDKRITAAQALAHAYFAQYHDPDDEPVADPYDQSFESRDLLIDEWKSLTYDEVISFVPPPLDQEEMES
Chain of Epidermal growth factor receptor (Homo sapiens) (P00533 whole entry): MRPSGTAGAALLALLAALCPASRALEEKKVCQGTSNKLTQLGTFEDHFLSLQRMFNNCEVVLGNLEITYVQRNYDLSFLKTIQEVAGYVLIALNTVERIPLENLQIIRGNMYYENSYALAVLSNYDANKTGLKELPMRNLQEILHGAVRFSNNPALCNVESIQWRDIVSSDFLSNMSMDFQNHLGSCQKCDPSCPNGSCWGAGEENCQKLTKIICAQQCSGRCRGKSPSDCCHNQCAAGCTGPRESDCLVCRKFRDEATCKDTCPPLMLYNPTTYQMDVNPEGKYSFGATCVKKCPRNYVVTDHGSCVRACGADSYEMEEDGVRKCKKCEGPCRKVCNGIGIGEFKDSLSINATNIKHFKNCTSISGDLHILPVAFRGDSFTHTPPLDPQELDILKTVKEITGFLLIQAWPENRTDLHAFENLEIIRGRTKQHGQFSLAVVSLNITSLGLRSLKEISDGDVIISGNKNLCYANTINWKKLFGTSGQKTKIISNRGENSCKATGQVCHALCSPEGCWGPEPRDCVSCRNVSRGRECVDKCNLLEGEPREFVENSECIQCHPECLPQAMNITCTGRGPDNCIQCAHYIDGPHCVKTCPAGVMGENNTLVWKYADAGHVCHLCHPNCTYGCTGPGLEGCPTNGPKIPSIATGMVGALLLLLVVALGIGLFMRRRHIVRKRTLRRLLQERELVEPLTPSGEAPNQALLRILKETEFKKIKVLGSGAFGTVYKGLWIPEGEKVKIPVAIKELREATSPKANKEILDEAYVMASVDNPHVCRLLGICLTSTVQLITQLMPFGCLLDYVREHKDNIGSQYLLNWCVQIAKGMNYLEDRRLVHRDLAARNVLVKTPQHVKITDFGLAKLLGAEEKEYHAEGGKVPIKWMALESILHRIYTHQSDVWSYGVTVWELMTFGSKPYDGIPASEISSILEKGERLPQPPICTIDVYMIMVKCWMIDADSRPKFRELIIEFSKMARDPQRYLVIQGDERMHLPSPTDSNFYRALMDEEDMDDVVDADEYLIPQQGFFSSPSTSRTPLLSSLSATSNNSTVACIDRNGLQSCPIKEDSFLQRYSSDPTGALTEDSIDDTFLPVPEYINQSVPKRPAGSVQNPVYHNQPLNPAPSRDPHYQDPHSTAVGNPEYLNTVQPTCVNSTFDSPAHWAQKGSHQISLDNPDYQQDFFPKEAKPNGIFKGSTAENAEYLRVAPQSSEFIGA

Turning to `O=c1[nH]c2ncc(-c3ccc(-c4nc[nH]n4)cc3)nc2n1CC1CCOCC1`, the Activity worked out at 90% in experiment [1]; 86% in [2]; 103% in experiment [3]; 93% in experiment [4]; 86% in experiment [5]; 86% in experiment [6]. In addition, the Activity in experiment [7] is 89%; in [9], 90%; in experiment [10] it was 55%; in experiment [11], 95%; in [12] it was 87%; in experiment [13], 91%. The Activity in [14] worked out at 92%; in experiment [15], 77%; in experiment [16], 88%. For the same molecule, the figures for the IC50 (with PC-3; in [8]) were 1370 nM and 2 nM, respectively.

On to `O=c1[nH]c2ncc(-c3ccc4[nH]cnc4c3)nc2n1CC1CCCCC1`, for which the Activity was 88% in experiment [1]; 49% in [2]; 101% in experiment [3]; 82% in experiment [4]; 82% in experiment [5]; 88% in [6]. Also, the Activity in [7] turned out to be 88%; in experiment [9] it was 92%; in experiment [10], 46%; in experiment [11], 94%; in experiment [12], 73%; in experiment [13], 84%. For the same molecule, the Activity in [14] stood at 75%; in [15], 61%; in [16], 87%. For the same molecule, the IC50 (as a rule, the concentration that gives 50% inhibition) was determined as 1160 nM in the experiment on PC-3 and 21 nM in experiment [8].

Regarding `CC(C)(O)c1ccc(-c2cnc3[nH]c(=O)n(CC4CCCCC4)c3n2)cc1`, the Activity turned out to be 84% in experiment [1]; 80% in experiment [2]; 99% in [3]; 92% in experiment [4]; 83% in experiment [5]; 74% in experiment [6]. Further, the Activity turned out to be 81% in [7]; 89% in experiment [9]; 71% in experiment [10]; 83% in experiment [11]; 74% in experiment [12]; 94% in experiment [13]. Further, the Activity in [14] worked out at 92%; in [15], 86%; in [16] it was 98%. Further, the IC50 was 1380 nM in the experiment with PC-3 and 30 nM in experiment [8].
